Laboratory results from patent publication US20240051978A1, “3-CYCLIC AMINE-INDOLE DERIVATIVES AS SEROTONERGIC AGENTS FOR THE TREATMENT OF CNS DISORDERS” (MINDSET PHARMA INC., priority 2020, published 2024).

Columns and labels:
[1] = Liver microsomes stability, mouse; conditions: for Remaining Percentage (%) 0 min / Remaining Percentage (%) 60 min: Mouse; for CLint scaled at 2 μM / half-life at 2 μM / microsomal CLint at 2 μM: male, mouse, microsomes
Procedure: (§1) The objective of this study was to estimate in vitro metabolic stability of 1-12 in pooled human and male mouse liver microsomes. The concentrations of parent compounds in reaction systems were evaluated by LC-MS/MS for estimating the stability in pooled human and male mouse liver microsomes. The in vitro intrinsic clearances of test compounds were determined as well.
(§2) A master solution in the “Incubation Plate” containing phosphate buffer, ultra-pure H2O, MgCl2 solution and liver microsomes was made according to Table 3. The mixture was pre-warmed at 37° C. water bath for 5 minutes.
(§3) 40 μL of 10 mM NADPH solution was added to each well. The final concentration of NADPH was 1 mM. The negative control samples were prepared by replacing NADPH with 40 μL of ultra-pure H2O. Samples were prepared in duplicate. Negative controls were prepared in singlet.
(§4) The reaction was started with the addition of 4 μL of 200 μM exemplary test compounds or control compounds to each master solution to get the final concentration of 2 μM. This study was performed in duplicate.
(§5) Aliquots of 50 μL were taken from the reaction solution at 0, 15, 30, 45 and 60 minutes. The reaction solutions were stopped by the addition of 4 volumes of cold methanol with IS (100 nM alprazolam, 200 nM imipramine, 200 nM labetalol and 2 μM ketoprofen). Samples were centrifuged at 3,220 g for 40 minutes. Aliquot of 90 μL of the supernatant was mixed with 90 μL of ultra-pure H2O and then was used for LC-MS/MS analysis.
(§6) LC/MS analysis was performed for all samples from this study using a Shimadzu liquid chromatograph separation system equipped with degasser DUG-20A5R; solvent delivery unit LC-30AD; system controller SIL-30AC; column oven CTO-30A; CTC Analytics HTC PAL System; Mass spectrometric analysis was performed using an Triple Quad™ 5500 instrument.
(§7) All calculations were carried out using Microsoft Excel. Peak area ratios of test compound to internal standard (listed in the below table) were determined from extracted ion chromatograms.
(§8) All calculations were carried out using Microsoft Excel. Peak areas were determined from extracted ion chromatograms. The slope value, k, was determined by linear regression of the natural logarithm of the remaining percentage of the parent drug vs. incubation time curve.
(§9) The in vitro half-life (in vitro t½) was determined from the slope value:
(§10) Conversion of the in vitro t½ (min) into the in vitro intrinsic clearance (in vitro CLint, in μL/min/mg proteins) was done using the following equation (mean of duplicate determinations): […]

[2] = molecular target: human 5-HT2A (h5-HT2A) receptor (Homo sapiens (Human), UniProt P28223); test: FLIPR assay, human 5-HT2A receptor under agonist mode; type: cell-based; conditions: FLIPR calcium
Procedure: I. Assessment of the Activated Effect of Exemplary Compounds of Formula I Targeting on Human 5-HT2A (h5-HT2A) Receptor Under Agonist Mode:
1. the Cells were cultured in cell culture medium (DMEM containing 10% FBS 1×penicillin-streptomycin 300 μg/ml G418 and 100 μg/ml hygromycin B) at 37° C., 5% (v/v) CO2.
2. One day before the assays, the cells were detached using TrypLE™ Express and cells were counted using cell counter.
3. 20000 cells/well were seeded in 30 μl/well culture medium to a 384-well cell plate and the cells were incubated overnight at 37° C., 5% (v/v) CO2.
4. On the assay day, 2× dye solution was prepared following the manual of the FLIPR® Calcium 6 Assay Kit: i. The dye was diluted with assay buffer(20 mM HEPES in 1×HBSS, PH7.4); ii. Probenecid was added to the final concentration of 5 mM; iii. Vortex vigorously for 1-2 minutes.
5. Medium was removed from cell plate by flicking the cell plate on towel papers.
6. 10 μl of assay buffer and 10 μl of 2× dye solution was added to each well of the cell plate.
7. The cell plate was placed on plate shaker, and the plate was agitated at 600 rpm for 2 minutes. The plate was incubated at 37° C. for 2 hours followed by additional 15-minute incubation at 25° C.
8. 3× compound in assay buffer was prepared: a. reference compounds were diluted to required concentration with DMSO. Compounds were added to a 384-well compound plate; b. Serial dilutions were performed; c. 10 mM test compounds were added to the compound plate, 3-fold serial dilutions were performed. d. […] 20 μl/well assay buffer was added to the compound plate; f. The plate was mixed on plate shaker for 2 mins;
i. The normalized fluorescence reading (RFU) was calculated as shown below, wherein Fmax and Fmin stand for maximum and minimum of calcium signal during defined time window: RFU=Fmax−Fmin
ii. The percentage activation was calculated by using following equation: […]
iii. EC50 was calculated by fitting % activation against log of compound concentrations with Hill equation using XLfit.

[3] = Liver microsomes stability, rat; conditions: for Predicted hepatic CL: Rat liver microsomes, with NADPH; for Remaining Percentage (%) 0 min / Remaining Percentage (%) 60 min: Rat; for CLint scaled at 2 μM / half-life at 2 μM / microsomal CLint at 2 μM: rat, microsomes
Procedure: as §1, §2, §3, §4, §5, §6, §7, §8, §9, §10

[4] = Liver microsomes stability, human; conditions: for Remaining Percentage (%) 0 min / Remaining Percentage (%) 60 min: Human; for CLint scaled at 2 μM / half-life at 2 μM / microsomal CLint at 2 μM: human, microsomes
Procedure: as §1, §2, §3, §4, §5, §6, §7, §8, §9, §10

human 5-HT2A receptor = human 5-HT2A receptor (Homo sapiens (Human), UniProt P28223); test: Radioligand binding assay ([3H]-ketanserin) on human 5-HT2A receptor; conditions: [3H]-ketanserin competition; read-out: h5-HT2A IC50
Procedure: • i. The assay buffer was prepared following the table below;
• ii. 8 doses of reference and exemplary test compounds were prepared starting from 10 mM stock solution as requested by 5-fold serial dilutions with 100%; • iii. (v/v) DMSO was prepared: a. 50 μl/well of 0.5% (v/v) PEI was added to UniFilter-96 GF/B plates. The plates were sealed and incubates at 4° C. for 3 hrs; b. After incubation, the plates were washed 3 times with ice-cold wash buffer (50 mM Tris, pH7.4); • iv. Preparation of assay plates: a. Cell membrane was diluted with assay buffer and 330 μl/well was added to 96 round deep well plates to reach a concentration of 20 μg/well; b. 8 concentrations of reference or exemplary test compounds were prepared and added 110 μl/well to 96 round deep well plates; c. [3H]-ketanserin was diluted with assay buffer to 5 nM (5× final concentration) and added 110 μl/well to 96 round deep well plates. • v. The plate were centrifuged at 1000 rpm for 30 secs and then agitated at 600 rpm, R.T. for 5 min. • vi. The plates were sealed and incubated at 27° C. for 90 min. • vii. The incubation was stopped by vacuum filtration onto GF/B filter plates followed by 4 times washing with ice-cold wash buffer (50 mM Tris, pH7.4). • vii. […] The filter plates were sealed and 40 μl/well of scintillation cocktail added. • x. The plate was read by using a Microbeta2 microplate counter.
For reference and exemplary test compounds, the results are expressed as % Inhibition, using the normalization equation: N=100−100×(U−C2)/(C1−C2), where U is the unknown value, C1 is the average of high controls, and C2 is the average of low controls. The IC50 was determined by fitting percentage of inhibition as a function of compound concentrations with Hill equation using XLfit.

[5] = Mouse liver microsomes, with NADPH
[6] = Human liver microsomes, with NADPH

Row | Compound | Predicted hepatic CL [1, 5] [mL/min/kg] | Remaining Percentage (%) 0 min ([1]; With NADPH) [%] | Remaining Percentage (%) 60 min ([1]; With NADPH) [%] | Remaining Percentage (%) 0 min ([1]; Without NADPH) [%] | Remaining Percentage (%) 60 min ([1]; Without NADPH) [%] | EC50 [2] [nM] | Predicted hepatic CL [3] [mL/min/kg] | Remaining Percentage (%) 0 min ([3]; With NADPH) [%] | Remaining Percentage (%) 60 min ([3]; With NADPH) [%] | Remaining Percentage (%) 0 min ([3]; Without NADPH) [%] | Remaining Percentage (%) 60 min ([3]; Without NADPH) [%] | CLint scaled at 2 μM [3] [mL/min/kg] | half-life at 2 μM [3] [h] | microsomal CLint at 2 μM [3] [µL/min/mg] | Predicted hepatic CL [4, 6] [mL/min/kg] | Remaining Percentage (%) 0 min ([4]; With NADPH) [%] | Remaining Percentage (%) 60 min ([4]; With NADPH) [%] | Remaining Percentage (%) 0 min ([4]; Without NADPH) [%] | Remaining Percentage (%) 60 min ([4]; Without NADPH) [%] | IC50 (human 5-HT2A receptor) [nM] | also measured
1 | [2H]C([2H])N1CCC(c2c[nH]c3cccc(O)c23)C1 (centres unmarked) [Compound I-32, 3-(1-(methyl-d2)pyrrolidin-3-yl)-1H-indol-4-ol] | 18.85 | 100.00 | 84.91 | 100.00 | 116.03 | < 1000 | 0.96 | 100.00 | 98.37 | 100.00 | 92.79 | 0.98 | 42.2 | 0.55 | 3.99 | 100.00 | 88.84 | 100.00 | 96.34 | 1000 to 10000 | CLint scaled at 2 μM [1]: 23.9 mL/min/kg; half-life at 2 μM [1]: 4.24 h; microsomal CLint at 2 μM [1]: 5.45 µL/min/mg; CLint scaled at 2 μM [4]: 4.95 mL/min/kg; half-life at 2 μM [4]: 5.86 h; microsomal CLint at 2 μM [4]: 3.94 µL/min/mg
2 | [2H]C1([2H])CC(c2c[nH]c3cccc(OCc4ccccc4)c23)C([2H])([2H])N1 (centres unmarked) [Compound I-35, 4-(benzyloxy)-3-(pyrrolidin-3-yl-2,2,5,5-d4)-1H-indole] | 32.19 | 100.00 | 70.91 | 100.00 | 90.87 | < 1000 | 17.94 | 100.00 | 64.09 | 100.00 | 103.32 | 26.6 | 1.56 | 14.8 | 0.00 | 100.00 | 104.21 | 100.00 | 119.60 | < 1000 | CLint scaled at 2 μM [1]: 50.1 mL/min/kg; half-life at 2 μM [1]: 2.02 h; microsomal CLint at 2 μM [1]: 11.5 µL/min/mg; T1/2 (min) ([4]; Human liver microsomes, with NADPH, 2 μM): ∞
3 | [2H]C1([2H])CC(c2c[nH]c3cccc(O)c23)C([2H])([2H])N1 (centres unmarked) [Compound I-33, 3-(pyrrolidin-3-yl-2,2,5,5-d4)-1H-indol-4-ol] | 0.00 | 100.00 | 103.45 | 100.00 | 118.32 | > 10000 | 15.15 | 100.00 | 70.49 | 100.00 | 105.30 | 20.9 | 1.98 | 11.7 | 1.24 | 100.00 | 96.89 | 100.00 | 115.64 | < 1000 | T1/2 (min) ([1]; Mouse liver microsomes, with NADPH, 2 μM): ∞; CLint scaled at 2 μM [4]: 1.32 mL/min/kg; half-life at 2 μM [4]: 22 h; microsomal CLint at 2 μM [4]: 1.05 µL/min/mg
